This is an account of results in ChEMBL document CHEMBL1154314, “Synthesis and antitumor activities of 3-modified 2-methoxyestradiol analogs” (Bioorg Med Chem Lett, 2009).

One experiment relates to MDA-MB-231. The experiment is described as follows: Antiproliferative activity against human MDA-MB-231 cells. It is filed as functional, cell-based.
The test system of a further experiment is HUVEC. Briefly: Antiangiogenic activity in HUVEC assessed as inhibition of cell proliferation. It is filed as functional, cell-based. The note with it: Homo sapiens.

A word on the IC50: it is the concentration at which inhibition is half-maximal. `COc1cc2c(cc1NC=O)CC[C@@H]1[C@@H]2CC[C@]2(C)[C@@H](O)CC[C@@H]12`: the IC50 with MDA-MB-231 came out at 0.78 µM; with HUVEC, 0.07 µM.

For `COc1cc2c(cc1S)CC[C@@H]1[C@@H]2CC[C@]2(C)[C@@H](O)CC[C@@H]12`, the IC50 in the experiment with MDA-MB-231 turned out to be 56.2 µM; with HUVEC it was 12.9 µM.

`C=Cc1cc2c(cc1OC)[C@H]1CC[C@]3(C)[C@@H](O)CC[C@H]3[C@@H]1CC2`: the figures for the IC50 in the experiment with MDA-MB-231 and in the experiment with HUVEC were 8.93 µM and 1.96 µM, respectively.

In the case of `COc1cc2c(cc1C(N)=O)CC[C@@H]1[C@@H]2CC[C@]2(C)[C@@H](O)CC[C@@H]12`, the half-inhibitory concentration (IC50) with MDA-MB-231 turned out to be 2.36 µM; in the experiment with HUVEC it was 2.59 µM.

Consider `COc1cc2c(cc1N)CC[C@@H]1[C@@H]2CC[C@]2(C)[C@@H](O)CC[C@@H]12`, for which the values for the IC50 in the experiment with MDA-MB-231 and with HUVEC were 2.48 µM and 2.32 µM, respectively.

In the case of `COC(=O)Nc1cc2c(cc1OC)[C@H]1CC[C@]3(C)[C@@H](O)CC[C@H]3[C@@H]1CC2`, the figures for the 50% inhibitory concentration (IC50) in the experiment on MDA-MB-231 and with HUVEC were 17.6 µM and 5.92 µM, respectively.

With `COc1cc2c(cc1OS(=O)(=O)C(F)(F)F)CC[C@@H]1[C@@H]2CC[C@]2(C)[C@@H](O)CC[C@@H]12`, the IC50 with MDA-MB-231 stood at 21.4 µM; in the experiment with HUVEC it was 3.27 µM.

`COc1cc2c(cc1Cl)CC[C@@H]1[C@@H]2CC[C@]2(C)[C@@H](O)CC[C@@H]12`: the half-maximal inhibitory concentration (IC50) in the experiment with MDA-MB-231 turned out to be 26.9 µM; in the experiment on HUVEC it was 7.45 µM.

With `COc1cc2c(cc1Br)CC[C@@H]1[C@@H]2CC[C@]2(C)[C@@H](O)CC[C@@H]12`, the results for the 50% inhibitory concentration (IC50) in the experiment with MDA-MB-231 and with HUVEC were 27.5 µM and 9.13 µM, respectively.

Turning to `COc1cc2c(cc1OC)[C@H]1CC[C@]3(C)[C@@H](O)CC[C@H]3[C@@H]1CC2`, the results for the IC50 in the experiment on MDA-MB-231 and with HUVEC were 43.7 µM and 31.5 µM, respectively.

On to `CCc1cc2c(cc1OC)[C@H]1CC[C@]3(C)[C@@H](O)CC[C@H]3[C@@H]1CC2`, for which the results for the half-inhibitory concentration (IC50) in the experiment on MDA-MB-231 and in the experiment with HUVEC were 46.9 µM and 5.44 µM, respectively.

With `COc1cc2c(cc1CO)CC[C@@H]1[C@@H]2CC[C@]2(C)[C@@H](O)CC[C@@H]12`, the IC50 in the experiment on MDA-MB-231 was 55.6 µM; in the experiment with HUVEC, 28.2 µM.

For the compound `COc1ccc2c(c1)[C@H]1CC[C@]3(C)[C@@H](O)CC[C@H]3[C@@H]1CC2`, the IC50 with MDA-MB-231 is 62 µM; in the experiment with HUVEC it was 22.1 µM.

`COc1cc2c(cc1N(C)C)CC[C@@H]1[C@@H]2CC[C@]2(C)[C@@H](O)CC[C@@H]12`: the results for the half-inhibitory concentration (IC50) with MDA-MB-231 and in the experiment on HUVEC were 103 µM and 2.82 µM, respectively.

`COc1cc2c(cc1NC(N)=O)CC[C@@H]1[C@@H]2CC[C@]2(C)[C@@H](O)CC[C@@H]12`: the IC50 in the experiment with MDA-MB-231 is 0.65 µM; in the experiment on HUVEC, 0.59 µM.

Turning to `COc1cc2c(cc1C#N)CC[C@@H]1[C@@H]2CC[C@]2(C)[C@@H](O)CC[C@@H]12`, the values for the IC50 with MDA-MB-231 and in the experiment on HUVEC were 8.98 µM and 2.65 µM, respectively.

In the case of `COc1cc2c(cc1NS(N)(=O)=O)CC[C@@H]1[C@@H]2CC[C@]2(C)[C@@H](O)CC[C@@H]12`, the IC50 came to 9.47 µM in the experiment on MDA-MB-231 and 3.88 µM with HUVEC.

Take `COc1cc2c(cc1NS(=O)(=O)C(F)(F)F)CC[C@@H]1[C@@H]2CC[C@]2(C)[C@@H](O)CC[C@@H]12`: the IC50 in the experiment with MDA-MB-231 was above 100 µM; with HUVEC, 46.2 µM.

In the case of `CNC(=O)c1cc2c(cc1OC)[C@H]1CC[C@]3(C)[C@@H](O)CC[C@H]3[C@@H]1CC2`, the 50% inhibitory concentration (IC50) with MDA-MB-231 and in the experiment with HUVEC was above 100 µM each time.

Regarding `COc1cc2c(cc1C(=O)O)CC[C@@H]1[C@@H]2CC[C@]2(C)[C@@H](O)CC[C@@H]12`, the IC50 in the experiment on MDA-MB-231 and with HUVEC was above 100 µM in each case.

Consider `COc1cc2c(cc1NC#N)CC[C@@H]1[C@@H]2CC[C@]2(C)[C@@H](O)CC[C@@H]12`, for which the IC50 was found to be 0.62 µM with MDA-MB-231 and 0.47 µM in the experiment with HUVEC.

As for `COC(=O)c1cc2c(cc1OC)[C@H]1CC[C@]3(C)[C@@H](O)CC[C@H]3[C@@H]1CC2`, the IC50 in the experiment with MDA-MB-231 and in the experiment with HUVEC was above 100 µM in each case.

As for `COc1cc2c(cc1C(=O)N(C)C)CC[C@@H]1[C@@H]2CC[C@]2(C)[C@@H](O)CC[C@@H]12`, the IC50 with MDA-MB-231 and in the experiment with HUVEC was above 10 µM each time.

For `COc1cc2c(cc1F)CC[C@@H]1[C@@H]2CC[C@]2(C)[C@@H](O)CC[C@@H]12`, the IC50 in the experiment on MDA-MB-231 was determined as 2.94 µM; with HUVEC, 2.1 µM.

As to `COc1cc2c(cc1NC(C)=O)CC[C@@H]1[C@@H]2CC[C@]2(C)[C@@H](O)CC[C@@H]12`, the IC50 with MDA-MB-231 stood at 3.95 µM; in the experiment with HUVEC it was 1.65 µM.
